Laboratory results published in patent US4923986A, “Derivatives of physiologically active substance K-252” (Kyowa Hakko Kogyo Co., Ltd., priority 1988, dated 1990).
Converted amounts (≈) assume the structure as drawn.

Tested on: C-kinase
Assay: not given
Details: literature, in words; cited from earlier work
For `NCCCCCCNS(=O)(=O)c1cccc2c(Cl)cccc12` [Compound W-7, N-(6-aminohexy)-5-chloro-1-naphthalenesulfonamide], the C-kinase inhibitory activity is listed as “low”.
In the case of `CN(C)CCCN1c2ccccc2Sc2ccc(Cl)cc21` [chlorpromazine], the C-kinase inhibitory activity is given as “low”.
In the case of `ClCCN(Cc1ccccc1)Cc1ccccc1` [dibenamine], the C-kinase inhibitory activity is listed as “low”.
In the case of `CCCCNc1ccc(C(=O)OCCN(C)C)cc1` [tetracaine], the C-kinase inhibitory activity is listed as “low”.
In the case of `CN1CCN(CCCN2c3ccccc3Sc3ccc(C(F)(F)F)cc32)CC1` [trifluoperazine], the C-kinase inhibitory activity is given as “low”.

Tested on: MCF 7 cells
Assay: MCF 7 cell growth inhibition test
Format: cell-based
Details: Homo sapiens, MCF7, 72 h, read-out: cell growth inhibitory activity IC50, MCF-7
Protocol: (§1) Compound (I) was examined for C-kinase inhibitory activity and cell growth inhibitory activity by the following method.
(1) MCF 7 cell growth inhibition test:
(§2) MCF 7 cells (4.5×10^4 cells/ml) prepared in RPMI 1640 medium containing 10% fetal calf serum, 10 μg/ml insulin and 10^-8 M estradiol are put into wells of a 96-well microtiter plate in the amount of 0.1 ml per each well. After incubation at 37° C. overnight in CO2 -incubator, 0.05 ml each of a test sample appropriately diluted with the culture medium is added to each well. In the case of contact for 72 hours, the cells are further cultured in CO2 -incubator, and then the culture supernatant is removed and the wells are washed once with PBS(-). Thereafter, 0.1 ml of fresh medium is added to each well, followed by culturing at 37° C. for 72 hours in CO2 -incubator. After the culture supernatant is removed, 0.1 ml of the culture medium containing 0.02% Neutral Red is added to each well, followed by culturing at 37° C. for one hour in CO2 -incubator, whereby the cells are stained. Then, the culture supernatant is removed and the cells are washed once with physiological saline. The pigment is extracted with 0.001N HCl/30% ethanol and absorption is measured at 550 nm with a microplate reader. By comparing the absorption of intact cells with those of the cells treated with a test compound in known concentrations, the concentration of the test compound at which growth of the cells is inhibited 50% is calculated as IC50.
Work on `C[C@]12O[C@H](C[C@]1(O)CO)n1c3ccccc3c3c4c(c5c6ccccc6n2c5c31)CNC4=O` (relative stereo) [Compound 20] yielded an IC50 of 0.55 µg/mL (≈ 1.25 µM).

Same assay, conditions: Homo sapiens, MCF7; MCF-7 cells, contact for 72 hours; read-out: cell growth inhibitory activity IC50, MCF-7
Compound `CC12OC(CC13COC(=S)O3)n1c3ccccc3c3c4c(c5c6ccccc6n2c5c31)CNC4=O` (centres unmarked) [Compound 54] has an IC50 of 1 µg/mL (≈ 2.08 µM).
In the case of `CC12OC(CC13CNC(=O)O3)n1c3ccccc3c3c4c(c5c6ccccc6n2c5c31)CNC4=O` (centres unmarked) [Compound 57], the IC50 is reported as 0.15 µg/mL (≈ 0.323 µM).

Tested on: not given
Assay: not given
Details: literature, in words; cited from earlier work
For `COC(=O)[C@@]1(O)C[C@H]2O[C@]1(C)n1c3ccccc3c3c4c(c5c6ccccc6n2c5c31)C(=O)NC4` (relative stereo) [Compound K-252], the antibacterial activity is given as “antibacterial substances”.
For `C[C@]12O[C@H](C[C@]1(O)C(=O)O)n1c3ccccc3c3c4c(c5c6ccccc6n2c5c31)CNC4=O` (relative stereo) [KT-5556], the antibacterial activity is listed as “antibacterial substances”.
In the case of `CN[C@@H]1C[C@H]2O[C@@](C)([C@@H]1OC)n1c3ccccc3c3c4c(c5c6ccccc6n2c5c31)C(=O)NC4` [Staurosporine], the antibacterial activity is listed as “antibacterial activity”.

Tested on: COLO320DM cells
Assay: COLO320DM cell growth inhibition test
Format: cell-based
Details: Homo sapiens, COLO 320DM, read-out: cell growth inhibitory activity IC50, COLO320DM
Protocol: as §2, with “After” for “MCF 7 cells (4.5×10^4 cells/ml) prepared in RPMI 1640 medium containing 10% fetal calf serum, 10 μg/ml insulin and 10^-8 M estradiol are put into wells of a 96-well microtiter plate in the amount of 0.1 ml per each well. After”, “reader.” for “reader. By comparing the absorption of intact cells with those of the cells treated with a test compound in known concentrations, the concentration of the test compound at which growth of the cells is inhibited 50% is calculated as IC50.”
(4) COLO320DM cell growth inhibition test:
Thereafter, the test is carried out in the same manner as in (1) except that the cells are counted with a microcell counter.
Compound `C[C@]12O[C@H](C[C@]1(O)CO)n1c3ccccc3c3c4c(c5c6ccccc6n2c5c31)CNC4=O` (relative stereo) [Compound 20] has an IC50 of 0.05 µg/mL (≈ 0.114 µM).

Same assay, conditions: Homo sapiens, COLO 320DM; COLO320DM cells, cells counted with a microcell counter; read-out: cell growth inhibitory activity IC50, COLO320DM
`CC12OC(CC13COC(=S)O3)n1c3ccccc3c3c4c(c5c6ccccc6n2c5c31)CNC4=O` (centres unmarked) [Compound 54] gave an IC50 of 0.08 µg/mL (≈ 0.166 µM).
`CC12OC(CC13CNC(=O)O3)n1c3ccccc3c3c4c(c5c6ccccc6n2c5c31)CNC4=O` (centres unmarked) [Compound 57] gave an IC50 of 0.37 µg/mL (≈ 0.797 µM).

Tested on: PC-10 cells
Assay: PC-10 cell growth inhibition test
Format: cell-based
Details: Homo sapiens, PC10, 72 h, read-out: cell growth inhibitory activity IC50, PC-10
Protocol: as §1, §2
(2) PC-10 cell growth inhibition test:
PC-10 cells (5×10^4 cells/ml) prepared in MEM medium containing 10% fetal calf serum and 2 mM glutamine are put into wells of a 96-well microtiter plate in the amount of 0.1 ml per each well.
Thereafter, the test is carried out in the same manner as in the MCF 7 cell growth inhibition test.
In the case of `COC(=O)[C@@]1(O)C[C@H]2O[C@]1(C)n1c3ccccc3c3c4c(c5c6cc(O)ccc6n2c5c31)C(=O)NC4` (relative stereo) [Compound 15], the IC50 is reported as 0.11 µg/mL (≈ 0.228 µM).
Compound `C[C@]12O[C@H](C[C@]1(O)CO)n1c3ccccc3c3c4c(c5c6ccccc6n2c5c31)CNC4=O` (relative stereo) [Compound 20] has an IC50 of 0.11 µg/mL (≈ 0.25 µM).

Same assay, conditions: Homo sapiens, PC10; PC-10 cells, contact for 72 hours; read-out: cell growth inhibitory activity IC50, PC-10
Work on `CC12OC(CC13COC(=S)O3)n1c3ccccc3c3c4c(c5c6ccccc6n2c5c31)CNC4=O` (centres unmarked) [Compound 54] yielded an IC50 of 0.11 µg/mL (≈ 0.228 µM).
Compound `CC12OC(CC13CNC(=O)O3)n1c3ccccc3c3c4c(c5c6ccccc6n2c5c31)CNC4=O` (centres unmarked) [Compound 57] has an IC50 of 0.1 µg/mL (≈ 0.215 µM).

Tested on: HeLaS3 cells
Assay: HeLaS3 cell growth inhibition test
Format: cell-based
Details: Homo sapiens, HeLa S3, 72 h, read-out: cell growth inhibitory activity IC50, HeLaS3
Protocol: as §1, §2
(3) HeLaS3 cell growth inhibition test:
HeLaS3 cells (3×10^4 cells/ml) prepared in MEM medium containing 10% fetal calf serum and 2 mM glutamine are put into wells of a 96-well microtiter plate in the amount of 0.1 ml per each well.
Thereafter, the test is carried out in the same manner as in (1).
For `COC(=O)[C@@]1(O)C[C@H]2O[C@]1(C)n1c3ccccc3c3c4c(c5c6cc(O)ccc6n2c5c31)C(=O)NC4` (relative stereo) [Compound 15], the IC50 was 0.48 µg/mL (≈ 0.993 µM).
With `C[C@]12O[C@H](C[C@]1(O)CO)n1c3ccccc3c3c4c(c5c6ccccc6n2c5c31)CNC4=O` (relative stereo) [Compound 20] the IC50 was 0.07 µg/mL (≈ 0.159 µM).

Same assay, conditions: Homo sapiens, HeLa S3; HeLaS3 cells, contact for 72 hours; read-out: cell growth inhibitory activity IC50, HeLaS3
With `CC12OC(CC13COC(=S)O3)n1c3ccccc3c3c4c(c5c6ccccc6n2c5c31)CNC4=O` (centres unmarked) [Compound 54] the IC50 was 0.28 µg/mL (≈ 0.581 µM).
`CC12OC(CC13CNC(=O)O3)n1c3ccccc3c3c4c(c5c6ccccc6n2c5c31)CNC4=O` (centres unmarked) [Compound 57] gave an IC50 of 0.04 µg/mL (≈ 0.0861 µM).

Molecular target: C-kinase (protein kinase C)
Assay: C-Kinase inhibitory activity test
Format: biochemical
Details: enzyme activity inhibited 50%
For `COC(=O)[C@@]1(O)C[C@H]2O[C@]1(C)n1c3ccccc3c3c4c(c5c6cc(O)ccc6n2c5c31)C(=O)NC4` (relative stereo) [Compound 15], the “C-Kinase inhibitory activity IC50” value was 0.009 µg/mL.
For `C[C@]12O[C@H](C[C@]1(O)CO)n1c3ccccc3c3c4c(c5c6ccccc6n2c5c31)CNC4=O` (relative stereo) [Compound 20], the “C-Kinase inhibitory activity IC50” value was 0.02 µg/mL.
With `CC12OC(CC13COC(=S)O3)n1c3ccccc3c3c4c(c5c6ccccc6n2c5c31)CNC4=O` (centres unmarked) [Compound 54] the “C-Kinase inhibitory activity IC50” value was 0.015 µg/mL.
In the case of `CC12OC(CC13CNC(=O)O3)n1c3ccccc3c3c4c(c5c6ccccc6n2c5c31)CNC4=O` (centres unmarked) [Compound 57], the “C-Kinase inhibitory activity IC50” value is reported as 0.02 µg/mL.

Tested on: histamine release
Assay: not given
Details: literature, in words; cited from earlier work
In the case of `COC(=O)[C@@]1(O)C[C@H]2O[C@]1(C)n1c3ccccc3c3c4c(c5c6ccccc6n2c5c31)C(=O)NC4` (relative stereo) [Compound K-252], the “activity to inhibit histamine release” value is given as “activity to inhibit histamine release”.
In the case of `C[C@]12O[C@H](C[C@]1(O)C(=O)O)n1c3ccccc3c3c4c(c5c6ccccc6n2c5c31)CNC4=O` (relative stereo) [KT-5556], the “activity to inhibit histamine release” value is listed as “activity to inhibit histamine release”.

Tested on: not given
Assay: not given
Details: literature, in words; cited from earlier work
Remark: another data set of the same source
In the case of `COC(=O)[C@@]1(O)C[C@H]2O[C@]1(C)n1c3ccccc3c3c4c(c5c6ccccc6n2c5c31)C(=O)NC4` (relative stereo) [Compound K-252], the anti-allergic activity is given as “anti-allergic activity”.
